Measurements published in article PMC5007476, “Use of cross-reactivity immunoassay to orient insulin replacement in diabetic patients with high levels of insulin antibodies” (MethodsX, 2016).
Like-named read-outs stand apart in the source and are kept apart here. Blank lines part the entries; values can stand above or below the substance they belong to.

Key:
[1] = cited from earlier work
Description: Detemir is an insulin analog in which a fatty acid (myristic acid) is bound to the lysine amino acid at position B29. […] Accordingly, its persistence as a potential antigen in circulation must not be ruled out. Glargine was created by modifying three amino acids. […] In order to avoid ... || Glulisine is a rapid-acting insulin analog that differs from human insulin in that the amino acid asparagine at position B3 is replaced by lysine and the lysine in position B29 is replaced by glutamic acid.

serum albumin = settings: background, no reference given; cited from earlier work
Description: (§1) Detemir is an insulin analog in which a fatty acid (myristic acid) is bound to the lysine amino acid at position B29. […] Accordingly, its persistence as a potential antigen in circulation must not be ruled out. Glargine was created by modifying three amino acids. […] In order to avoid ...

[2] = system: insulin antibodies (IA) in patient serum; assay: Displacement radioimmunoassay (RIA) for affinity and cross-reactivity of insulin antibodies in patient serum; format: binding, human; settings: for Selectivity (S = KL/KCi): at start of study, KL = K0 of regular human insulin, KCi = K0 of the competitor analog; for K0, average (median) affinity constant: at start of study (before change of insulin), patient serum 30 μL, duplicates, 5 days at 4 °C (near equilibrium), tracer mono [^125I A14] insulin ~20,000 cpm (5.8 × 10^−11 M), competitor 1 × 10^−9 to 10^−6 M
Method: The homogeneous mono [^125I A14]
For in vitro cross-reactivity assessment a displacement RIA was applied by using the tracer described above. Briefly, duplicate 30 μL serum samples from the patient were incubated during 5 days at 4 °C (near equilibrium) with a constant amount of tracer (∼20,000 cpm). […] Insulin analogs were engineered to enhance desired molecular properties without altering immunogenicity, at least in theory. However, since the amino acid sequence of these insulin variants were changed to alter its absorption, distribution, metabolism and excretion characteristics, some residual capacity to elicit specific antibodies must be expected. […] Also the grade of alteration of the natural insulin molecule is of importance.
In order to express the degree of cross reactivity of IA induced by the initial insulin formulation (¨Ligand̈, L), against a panel of slow or fast action insulin analogs as described above (Competitors̈, Ci), the parameter selectivity (S), as defined elsewhere (Berzofsky and Schechter; Berzofsky et al.), was employed. Approximate values for average (median) affinity (K0) for L and those from each Ci, were obtained from the plots of B/F signals as a function of each competitor concentration, interpolating in the abscissa axis the respective doses corresponding to the maximum/2 signal [(B/F)0/2] (Graphical abstract, RIA plot). Alternatively, a best fit to the true affinity constants was obtained by representing B/F signals for each ligand as a function of free tracer (F) calculated by the formula: F = [C/(1 + B/F)]. It is important to emphasize that the molar concentration of the tracer in the test must be lower than the inverse of K0 value. This condition precludes the preparation of the respective labeled competitors to perform specific single RIAs for each homologous ligand. (Berzofsky and Schechter). In the RIA the concentration of tracer was 5.8 × 10^−11 M (see Preparation of the homogeneous tracer mono [^125I A14] Insulin) and K0 values for IA (ranging 10^6–10^8 M^−1) were obtained from previous work of our laboratory (Trabucchi et al.; Trabucchi et al.).
Finally, the respective Selectivity ratios were obtained using the expression: Si = KL/KCi.

[3] = background, no reference given, cited from earlier work
Description: as §1

[4] = Metabolic control of the patient (glycaemia, HbA1c) under insulin treatment; format: in vivo, human
[5] = system: anti-insulin antibodies (IA)
Method: Insulin used as a tracer for both radiometric methods, RBA and RIA, was produced using recombinant human insulin (HumulinC from Eli Lilly, Indiana, USA) devoid of preservative substances by chromatography on a Sephadex G25 column (Amersham Biosciences, New Jersey, USA). The labeling and HPLC purification steps were carried out following as indicated by Linde et al. [3] and Jørgensen et al. [4], respectively. Specific radioactivity of roughly 300–380 μCi/μg was routinely achieved.
The concentration of tracer in both, RBA and RIA, was 5.8 × 10^−11, calculated from an activity of 20,000 cpm; Relative mass of insulin, 5808 Da; Final incubation volume, 0,12 mL; Gamma counter efficiency, 70%; Specific activity of fresh insulin tracer, 380 μCi/μg.
Radioligand binding assay for IA assessment, performed routinely as official analysis service at IDEHU-CONICET laboratory, was based on the original procedure indicated by Kurtz et al. [5] and carried out essentially as previously described by Stumpo et al. [6]. […] Results were expressed as specific insulin binding percentage B% = Bwi% (preincubated without cold insulin) – Bie% (preincubated with excess cold insulin). Reproducibility was assessed at different binding levels. […]

[6] = effect of the sequence modification; background, no reference given; cited from earlier work
Description: (§2) Lispro was engineered through recombinant DNA technology so that the penultimate lysine and proline residues on the C-terminal end of the B-chain were reversed. […] This allowed larger amounts of active monomeric insulin to be available for postprandial (after meal) injections. Similar to Glulisine, the monomeric state of Lispro theoretically may diminish the chance of phagocytosis by cells of the Immune System resulting in lower immunogenicity.

insulin receptor = settings: effect of the sequence modification; background, no reference given; cited from earlier work
Description: as §2

[7] = after 6 months of Glulisine 0,6 IU/Kg/day by pump infusion
[8] = before change, more than 3 IU/kg/day NPH human insulin complemented with crystalline human insulin

Substance: Detemir
duration/onset of action (in words) [1]: increasing its duration of action | affinity for serum albumin (in words) (serum albumin): high affinity for serum albumin | Selectivity (S = KL/KCi) [2]: ~1

Substance: Glargine
duration/onset of action (in words) ([1]; background, no reference given): prolonged action when compared with biosynthetic human insulin | solubility at physiological pH (in words) ([3]; physiological pH): less soluble at a physiological pH | isoelectric point ([3]; shifted from 5.4 by two added arginine residues): 6.7 | solubility at slightly acidic pH (in words) ([3]; slightly acidic pH): more soluble at a slightly acidic pH | K0, average (median) affinity constant [2]: 2.1e+07 M⁻¹ | Selectivity (S = KL/KCi) [2]: 37.6

Substance: Glulisine
duration/onset of action (in words) ([1]; background, no reference given): rapid-acting | HbA1c [4, 7]: 7.6% | HbA1c (IFCC) [4, 7]: 60 mmol/mol | metabolic control (in words) [4, 7]: recovered metabolic control | K0, average (median) affinity constant [2]: 1e+06 M⁻¹ | Selectivity (S = KL/KCi) [2]: 790 | IA binding rate compared with regular human insulin ([2]; in vitro, at the same doses, start of study): 1/790 | change of B% signal (in words) [5]: significant decrease in B% signal

Substance: NPH human insulin: NPH human insulin (Humulin – Eli Lilly) complemented with crystalline human insulin
HbA1C [4, 8]: 11% | HbA1C (IFCC) [4, 8]: 97 mmol/mol | metabolic control (in words) ([4]; before change, more than 3 IU/kg/day NPH human insulin complemented with crystalline human insulin, last two years): inadequate metabolic control

Continued, in another order:

K0, average (median) affinity constant [2]: 1.96e+07 M⁻¹ | Selectivity (S = KL/KCi) [2]: 40.3 | K0, affinity constant ([2]; control RIA on serum sample after 14 months (of Glulisine treatment)): 3.4e+07 M⁻¹
Substance: Lispro
formation of insulin dimers and hexamers (in words) [6]: blocked the formation of insulin dimers and hexamers | insulin receptor binding (in words) (insulin receptor): did not alter the insulin receptor binding

K0, average (median) affinity constant [2]: 7.9e+08 M⁻¹
Substance: regular human insulin: unlabeled regular crystalline human insulin (Humulin, Eli Lilly)
